{
  "source": "patent US11193136B2",
  "about": "“Cellulose synthase inhibitors and mutant plants” (VIB VZW, priority 2016, dated 2021)",
  "key": {"[1]": {"test_system": "wild type Arabidopsis (Col-0)", "assay": "Growth of Arabidopsis seedlings on half MS medium with C17 or analogues", "type": "in vivo", "settings": "200 nM", "method": "(§1) C17 (5-(4-chlorophenyl)-7-(2-methoxyphenyl)-1,5,6,7-tetrahydro-[1,2,4]triazolo[1,5-a]pyrimidine; ChemDiv, Catalogue #: 7693622), a synthetic molecule, was identified from a chemical screen as a ploidy-inducing compound in Arabidopsis protoplasts. To test the effects of C17 on plants, Arabidopsis seeds were plated on half MS medium (Murashige, T. and F. Skoog, 1962) in the presence or absence of 200 nM C17 or its analogues. […] To dissect the C17 inhibitory effects, we employed confocal laser scanning microscopy (LSM710, ZEISS) to observe the root structure. Five-day-old Arabidopsis seedlings grown on vertical plates were transferred to half MS medium containing C17 for further growth. After three-day treatment, the root tips were analysed. Consistent to its growth inhibitory activity, C17 caused cell death at a concentration as little as 25 nM (FIG. 2). At the lowest concentration applied, root cortical cells of the transition zone were affected. This phenotype was aggravated and expanded to other tissues with an increasing dosage of C17 (FIG. 2).\n(§2) For studying the growth inhibitory effects of C17 on plants, wild type and C17 resistant mutants were germinated on half MS medium (Murashige and Skoog, 1962) supplemented with or without indicated levels of C17 or its analogs. Seven-day-old seedlings were photographed. […]"}, "[2]": {"test_system": "ixr1-1, ixr1-2, and ixr2-1 mutants", "assay": "Sensitivity of isoxaben resistant mutants to C17", "type": "in vivo, Arabidopsis", "settings": "200 nM C17, 3 days", "source_text": "To date, several cellulose synthase inhibitors have been reported. In terms of molecular structure, the C17 compound differs completely from any known cellulose inhibitor.\nFor studying the growth inhibitory effects of C17 on plants, wild type and C17 resistant mutants were germinated on half MS medium (Murashige and Skoog, 1962) supplemented with or without indicated levels of C17 or its analogs. Seven-day-old seedlings were photographed. For observation of the root structure, five-day-old Arabidopsis seedlings were transferred to half MS medium containing different dosages of C17. After a three-day treatment, seedlings were photographed and their root tips were stained with propidium iodide (PI), a fluorescent dye that is excluded from the membranes of healthy cells but penetrates the plasma membrane of dead cells. The stained root tips were visualized by confocal laser scanning microscopy (LSM710, ZEISS). The ixr1-1 (collection number CS6201), ixr1-2 (CS6202) and ixr2-1 (CS6203) mutants were acquired from the ABRC. Five-day-old Arabidopsis seedlings were transferred to half MS medium with or without 200 nM C17. After 3 day, the plants were photographed."}, "Arabidopsis root": {"test_system": "Arabidopsis root", "assay": "Root structure and cell death by propidium iodide staining and confocal microscopy", "type": "in vivo", "method": "as §1, §2"}, "[3]": {"test_system": "Arabidopsis root elongation zone", "assay": "Detection of cell wall weakening by PI uptake under gentle pressure on the root", "type": "in vivo", "method": "Because the cellulose synthesized by the CESA1/CESA3 complex is a primary cell wall component, it was expected that C17-treated plants would display a weaker cell wall, which can be visualized by the uptake of propidium iodide (PI) following the application of a gentle pressure on the root.\nFor the detection of cell wall weakening, 3-day-old seedlings grown on half-strength MS medium were transferred to liquid medium without or with 200 nM C17. The root tips were stained with […] mL^−1 prodium iodide for three min. The stained root tips were put on the Nunc™ Lab-Tek™ Chambered Coverglass (Catalog #155361) without pressure or microscope slide with cover slip that gave a gentle exerting of pressure. By using confocal laser scanning microscopy (LSM710, ZEISS), the brittle cells could be visualized by the uptake of PI."}},
  "data": [
    {"smiles": "COc1ccccc1C1CC(c2ccc(Cl)cc2)N=C2N=CNN21", "note": "(stereo not drawn) [C17, 5-(4-chlorophenyl)-7-(2-methoxyphenyl)-1,5,6,7-tetrahydro-[1,2,4]triazolo[1,5-a]pyrimidine]", "values": [
      {"measurement": "effect on plant growth", "setting": "[1]", "value": "severe growth inhibition accompanied by radial swelling of the root tip"},
      {"measurement": "sensitivity of isoxaben resistant mutants (ixr1-1, ixr1-2, ixr2-1)", "setting": "[2]", "value": "still sensitive"},
      {"measurement": "cell elongation phenotype", "setting": "Arabidopsis root; 100 nM C17, three-day treatment", "value": "radical rather than polar cell elongation"},
      {"measurement": "concentration causing cell death in the root", "setting": "Arabidopsis root; five-day-old seedlings, three-day treatment, lowest concentration applied", "value": 25, "unit": "nM"},
      {"measurement": "PI uptake and growth inhibition in C17-tolerant mutants", "setting": "[3]; 200 nM C17, C17-tolerant mutants", "value": "No PI-positive cells and growth inhibition"},
      {"measurement": "time to cell wall weakening in the root elongation zone", "setting": "[3]; 200 nM C17, wild type, PI uptake", "value": "≤ 2", "unit": "h"}
    ]}
  ]
}
